Experimental data reported in patent publication US5541183A, “Ginkgolide derivatives” (priority 1993, dated 1996).
Read-outs that look alike come from different tables or passages of the source.

How the values were obtained:
[1] = test system: PAF-induced rabbit platelet aggregation; assay: PAF-induced rabbit platelet aggregation; assay type: cell-based, rabbit (New Zealand white); settings: Oryctolagus cuniculus, read-out: IC50, inhibition of PAF-induced rabbit platelet aggregation
Procedure: Pharmacology Example 1: PAF-induced rabbit platelet aggregation
Blood was collected from the ear artery of a male New Zealand white rabbit and mixed with 3.8% sodium citrate in a 9:1 volume ratio. Platelet rich plasma (PRP) was obtained by centrifugation of the blood at 150 g for 10 min at room temperature. The number of platelets was adjusted to 3×10^8 platelets/ml with platelet poor plasma. Platelet aggregation was monitored by continuous recording of light transmission in a dual-channel aggregometer (Chrono-Log 560-VS) coupled with a two channel recorder (Chrono-Log 707). Stirred PRP was treated with various concentrations of the test compounds or vehicle (0.5% DMSO) for 2 min and then PAF(5×10^-9 M) was added to induce platelet aggregation.
Inhibition values were calculated by comparing the extent of aggregation obtained in the presence of the vehicle alone (0.5% DMSO) and in the presence of a test compound. Log concentration-response curves were generated and the IC50 values were determined by regression analysis.
Table 1 lists results from this assay for inhibition of PAF-induced rabbit platelet aggregation for illustrative examples of the compounds of this invention.

[2] = test system: Ag-induced bronchoconstriction; assay: Ag-induced bronchoconstriction in the guinea pig; assay type: in vivo, guinea pig (Hartley strain); settings: for ED50: Cavia porcellus, iv, 10 min, read-out: ID50, Ag-induced bronchoconstriction
Procedure: Pharmacology Example 3: Ag-induced bronchoconstriction
All experiments utilized male guinea pigs (Hartley strain), weighing 350 to 500 g. The animal was passively sensitized with rabbit anti-chicken egg albumin (1.3 mg/kg), 17-24 hrs before ovaibumin challenge. Passively sensitized animals were anesthetized with ethyl carbamate 1.5 g/kg, i.p.). An intratracheal cannula was inserted into trachea and indwelling catheters were inserted into the right carotid artery and left jugular vein. The animals were ventilated with a small animal respirator (UGO BASILE 7025, 70 breaths/min, 1 ml/stroke/100 g). To monitor dead or not, mean arterial pressure was measured continuously with a pressure transducer (Physiological Pressure Transducer, MICRON INSTRUMENT MP-15) connected to an amplifier (COULBOURN INSTRUMENT 572-25) and recorder (COULBOURN INSTRUMENT R14-18). The rate of bronchoconstriction was measured as an increase in lung overflow with a bronchospasm transducer (UGO BASILE 7020) from a side arm off the tracheal cannula, and expressed as a percentage of maximum broncoconstriction obtained by clamping off the tracheal cannular. Test compounds or vehicle (0.5% DMSO) were administered through the cannula into the jugular vein and ovalbumin (1.0 mg/kg, i.v.) was administered 10 minutes later. Bronchoconstriction response was compared to that obtained with control group treated with vehicle. Percent inhibition was calculated for each dose. If necessary, log dose-response curves were generated and the ID50 values were determined by regression analysis.

[3] = 0.1 mg/kg, jugular vein, ovalbumin 1.0 mg/kg i.v. 10 minutes later
[4] = 0.5 mg/kg, jugular vein, ovalbumin 1.0 mg/kg i.v. 10 minutes later
[5] = 1.0 mg/kg, jugular vein, ovalbumin 1.0 mg/kg i.v. 10 minutes later
[6] = jugular vein, ovalbumin 1.0 mg/kg i.v. 10 minutes later

IC50 ([1]; rabbit PRP, PAF 5×10^-9 M) | Structure (SMILES) | % inhibition of Ag-induced bronchoconstriction [2, 3] | % inhibition of Ag-induced bronchoconstriction [2, 4] | % inhibition of Ag-induced bronchoconstriction [2, 5] | IC50 [1] | further results
38.9 nM | COc1c(C)cnc(COC2C(=O)OC3OC45C(=O)OC6CC(C(C)(C)C)C32C64C(O)C2OC(=O)C(C)C25O)c1C (stereo not drawn) [Example 97, 10-(4-methoxy-3,5-dimethyl-2-pyridinyl) -methoxy-Ginkgolide B] | 30% | 68% | 100% | – | ED50 [2, 6]: 0.42 mg/kg
87.7 nM | Cc1cnc(COC2C(=O)OC3OC45C(=O)OC6CC(C(C)(C)C)C32C64C(O)C2OC(=O)C(C)C25O)c(C)c1N (stereo not drawn) [Example 103, 10-(3,5-dimethyl-4-amino-2-pyridinyl)-methoxy-Ginkgolide B] | 10% | 62% | 97% | – | ED50 [2, 6]: 0.48 mg/kg
54.1 nM | CC1C(=O)OC2C(O)C34C5CC(C(C)(C)C)C36C(OC(=O)C6OCCN3CCOCC3)OC4(C(=O)O5)C12O (stereo not drawn) [Example 119, 10-(2'-(1"-morpholinyl)-ethoxy)-Ginkgolide B] | – | – | – | – | –

More lines, now with the values behind:

Structure (SMILES) | IC50 ([1]; rabbit PRP, PAF 5×10^-9 M) | % inhibition of Ag-induced bronchoconstriction [2, 3] | % inhibition of Ag-induced bronchoconstriction [2, 4] | % inhibition of Ag-induced bronchoconstriction [2, 5] | IC50 [1] | further results
CC1C(=O)OC2C(O)C34C5CC(C(C)(C)C)C36C(OC(=O)C6OCc3ccccn3)OC4(C(=O)O5)C12O (stereo not drawn) [Example 99, 10-(2-pyridinyl)-methoxy-Ginkgolide B] | – | 42% | 73% | 100% | 30.7 nM | ED50 [2]: 0.31 mg/kg
COc1cccc(COC2C(=O)OC3OC45C(=O)OC6CC(C(C)(C)C)C32C64C(O)C2OC(=O)C(C)C25O)c1 (stereo not drawn) [Example 91, 10-(3'-methoxybenzyloxy)-Ginkgolide B] | 93.1 nM | – | – | – | – | –
COc1cc(COC2C(=O)OC3OC45C(=O)OC6CC(C(C)(C)C)C32C64C(O)C2OC(=O)C(C)C25O)cc(OC)c1OC (stereo not drawn) [Example 15, 10-(3',4',5'-trimethoxybenzyloxy)-Ginkgolide B] | 62.1 nM | – | – | – | – | –
CC1C(=O)OC2C(O)C34C5CC(C(C)(C)C)C36C(OC(=O)C6OCCc3ccccn3)OC4(C(=O)O5)C12O (stereo not drawn) [Example 101, 10-(2-pyridinyl)-ethoxy-Ginkgolide B] | – | – | – | – | 102 nM | –
CC1C(=O)OC2C(O)C34C5CC(C(C)(C)C)C36C(OC(=O)C6OCc3c(F)c(F)c(F)c(F)c3F)OC4(C(=O)O5)C12O (stereo not drawn) [Example 83, 10-(2',3',4',5',6'-pentafluorobenzyloxy)-Ginkgolide B] | – | – | – | – | 71.7 nM | –
CC1C(=O)OC2C(O)C34C5CC(C(C)(C)C)C36C(OC(=O)C6OCc3cccc([N+](=O)[O-])c3)OC4(C(=O)O5)C12O (stereo not drawn) [Example 63] | – | – | – | – | 62.7 nM | –
